The assay addresses T1, human CPT1A (Homo sapiens, UniProt P50416).
T1 construct: made in house; host or cells: Saccharomyces cerevisiae (pESC-trp) or cultured mammalian cells (pCDNA3.1); mitochondrial extract
T1 sequence (P50416 1-773): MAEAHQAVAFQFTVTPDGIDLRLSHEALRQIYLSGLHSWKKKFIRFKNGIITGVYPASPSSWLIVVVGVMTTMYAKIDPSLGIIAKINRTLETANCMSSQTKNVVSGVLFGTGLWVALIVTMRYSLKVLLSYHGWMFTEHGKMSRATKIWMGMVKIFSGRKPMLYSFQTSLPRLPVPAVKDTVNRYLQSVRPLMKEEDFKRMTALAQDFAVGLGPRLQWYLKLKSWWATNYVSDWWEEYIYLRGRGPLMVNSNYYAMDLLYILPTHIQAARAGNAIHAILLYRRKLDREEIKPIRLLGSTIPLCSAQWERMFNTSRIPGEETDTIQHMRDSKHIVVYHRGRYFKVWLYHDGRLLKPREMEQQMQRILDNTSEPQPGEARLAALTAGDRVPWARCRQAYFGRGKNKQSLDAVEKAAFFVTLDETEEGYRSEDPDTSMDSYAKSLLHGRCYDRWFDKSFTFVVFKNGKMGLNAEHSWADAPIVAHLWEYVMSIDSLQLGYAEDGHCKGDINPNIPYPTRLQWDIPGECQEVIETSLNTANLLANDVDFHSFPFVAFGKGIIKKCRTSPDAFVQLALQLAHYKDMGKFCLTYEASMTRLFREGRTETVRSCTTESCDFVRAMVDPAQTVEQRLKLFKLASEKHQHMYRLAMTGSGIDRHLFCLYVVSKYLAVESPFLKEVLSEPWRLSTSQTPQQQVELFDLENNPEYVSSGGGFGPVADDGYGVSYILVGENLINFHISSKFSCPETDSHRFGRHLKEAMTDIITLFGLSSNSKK
Put plainly: Human CPT1A LC/MS assay. Type of assay: biochemical. From the text: Nucleotide sequences encoding human CPT1 enzymes were individually cloned into the yeast expression vector pESC-trp at the Cla1 (5′ terminus) and Pac1 (3′ terminus) restriction sites by PCR amplification of the open reading frame using oligonucleotide primers designed to encode the wild-type CPT1 protein sequence. Standard molecular biology techniques were used to transform and express the CPT1 proteins in the yeast Saccharomyces cerevisiae. The yeast cells were lysed by enzymatic degradation of the cell wall by Zymolase, and the mitochondria were isolated by standard biochemical techniques. The integrity of the isolated mitochondria was monitored by determining the activity of succinate dehydrogenase in the mitochondrial preparations. The mitochondrial extracts were stored at −80° C. in buffer containing 10 mM HEPES pH 7.4 and 250 mM sucrose.
Human CPT1 (A, B, C) genes were additionally cloned into the pCDNA3.1 vector individually for expression in cultured mammalian cells. Cells expressing the exogenous CPT1A were identified and grown under standard conditions. Mammalian cells were harvested, and mitochondrial extracts prepared using standard biochemical methods. The mitochondrial extracts were stored at −80° C. in buffer containing 10 mM HEPES pH 7.4 and 250 mM sucrose.
Assays were performed in 96-well plate format. Each 100 μL reaction contained 40 mM KCl, 50 mM TrisHCl pH 7.5, and 250 mM mannitol (Assay Buffer), and 1.6 μg protein of an extract, 20 μM palmitoyl-CoA, 50 μM L-carnitine, and 10 ug/mL BSA. Reactions were incubated at room temperature and stopped after 10 minutes by extraction with 200 μL of water saturated n-butanol containing myristoyl carnitine (500 nM) as an internal standard. The samples were thoroughly mixed, and the phases separated by centrifugation. Samples were prepared for analysis with a 10 fold dilution of the n-butanol phase containing the reaction product palmitoyl carnitine into a 50:50 (acetonitrile:water) solvent for analysis. […] of prepared sample was separated on a Phenomenex Jupiter 5μ C4 reverse-phase column using an Agilent 1100 HPLC with a gradient from 50% acetonitrile (0.5% acetic acid) to 100% acetonitrile and quantified by detection with a Bruker Esquire 3000plus mass spectrometer. The abundance of the palmitoyl carnitine product was determined relative to the internal standard and the actual quantity of palmitoyl carnitine can be determined from a standard curve prepared using the n-butanol solution containing the internal standard.
Compounds were evaluated in two formats, a screening format, and a dose response format. The screening format was performed by adding 25 μL compound in 20% DMSO and Assay Buffer to 25 μL of extract containing […] and Assay Buffer, followed by a 10 minute incubation at room temperature. 50 μL of 40 μM palmitoyl-CoA in Assay Buffer was added to the reaction mixture, mixed and incubated for 10 minutes at room temperature. A negative control for activity was also performed where the carnitine was omitted from the reaction. A positive control for activity was also performed by omitting compound from the solution containing 20% DMSO and Assay Buffer. The reaction mixture was extracted and analyzed as described above. The inhibition by compound was determined by comparing the control relative activity to the relative activity observed in wells containing the compound. Relative activity was determined by subtracting the relative intensity (area palmitoyl carnitine/area myristoyl carnitine) observed in the negative control from the relative intensity observed in the experimental well, and dividing by the relative activity observed in the positive control.
[formula] Compound characterization by dose response format was performed using the above described assay conditions and a 16 point compound titration in 2 fold compound dilution steps. The DMSO concentration was kept constant at 20% (v/v) for all compound concentrations.

The mark [1] stands for this setting: human CPT1A LC/MS assay, dose response format.

For `C[N+](C)(C)C[C@H](N)CC(=O)[O-]` [L-aminocarnitine, (R)-3-amino-4-(trimethylammonio)butanoate, reference compound], the IC50 (usually the concentration at which inhibition is half-maximal) (dose response assay, n=17) was 7 ± 2.5 µM.
Under setting [1], `CCCCCCOc1cccc(C#Cc2ccc(C(=O)N[C@H](CC(=O)[O-])C[N+](C)(C)C)o2)c1` [Example S122, (R)-3-(5-((3-(hexyloxy)phenyl)ethynyl)furan-2-carboxamido)-4-(trimethylammonio)butanoate] displayed an IC50 of 1 to 10 µM.
On the same count and under the same terms, for `CCCCCCCCCCCCN(c1ccccc1)S(=O)(=O)N[C@H](CC(=O)[O-])C[N+](C)(C)C` [Example S32, (R)-3-(N-dodecyl-N-phenylsulfamoylamino)-4-(trimethylammonio)-butanoate] the value was 10 to 100 µM; for `CCCCCc1ccc(CCC2CCC(C(=O)N[C@H](CC(=O)[O-])C[N+](C)(C)C)O2)cc1` (stereo partly drawn) [Example S121, (3R)-3-(5-(4-pentylphenethyl)tetrahydrofuran-2-carboxamido)-4-(trimethylammonio)butanoate], 1 to 10 µM.
On the same count and under the same terms, for `C[N+](C)(C)C[C@@H](CC(=O)O)NC(=O)Nc1ccc(C(=O)c2ccccc2)cc1` [Example S16, (R)-2-(3-(4-Benzoylphenyl)ureido)-3-carboxy-N,N,N-trimethylpropan-1-aminium acetate] the value was 10 to 100 µM; for `C[N+](C)(C)C[C@@H](CC(=O)O)NC(=O)c1ccc(CS(=O)(=O)Cc2ccccc2)o1` [Example S61, (R)-3-(5-(benzylsulfonylmethyl)furan-2-carboxamido)-4-(trimethyl-ammonio)butanoate 2,2,2-trifluoroacetate], 100 to 1000 µM.
Still for that read-out and setting: for `C[N+](C)(C)C[C@@H](CC(=O)O)NS(=O)(=O)c1ccc(-c2ccno2)s1` [Example S22, (R)-3-carboxy-2-(5-(isoxazol-5-yl)thiophene-2-sulfonamido)-N,N,N-trimethylpropan-1-aminium 2,2,2-trifluoroacetate] the value was 1000 to 2500 µM; for `C[N+](C)(C)C[C@@H](CC(=O)[O-])NC(=O)Nc1ccccc1Oc1ccccc1` [Example S100, (R)-3-carboxy-N,N,N-trimethyl-2-(3-(2-phenoxyphenyl)ureido)propan-1-aminium], more than 2500 µM; for `CCCCCCCCCc1ccc(NS(=O)(=O)N[C@H](CC(=O)[O-])C[N+](C)(C)C)cc1` [Example S105, (R)-3-(N-(4-nonylphenyl)sulfamoylamino)-4-(trimethylammonio)-butanoate], not above 1 µM.
`Cc1nc(-c2cnccn2)sc1C(=O)N[C@H](CC(=O)[O-])C[N+](C)(C)C` [Example S51, (R)-3-(4-methyl-2-(pyrazin-2-yl)thiazole-5-carboxamido)-4-(trimethyl-ammonio)butanoate] had a 50% inhibitory concentration (IC50) under setting [1] of more than 2500 µM.
The molecule `C[N+](C)(C)C[C@@H](CC(=O)O)NC(=O)c1ccc(C#Cc2ccccc2)cc1` [Example S62, (R)-3-(4-(phenylethynyl)benzamido)-4-(trimethylammonio)butanoate 2,2,2-trifluoroacetate] returned a half-maximal inhibitory concentration (IC50) under setting [1] of 10 to 100 µM.
`CCCCCc1ccc(C#Cc2ccc(C(=O)N[C@H](CC(=O)[O-])C[N+](C)(C)C)o2)cc1` [Example S115, (R)-3-carboxy-N,N,N-trimethyl-2-(5-((4-pentylphenyl)ethynyl)furan-2-carboxamido)propan-1-aminium 2,2,2-trifluoroacetate] came in with an IC50 under setting [1] not above 1 µM.
`C[N+](C)(C)C[C@@H](CC(=O)[O-])NC(=O)Nc1ccc(C(F)(F)F)cc1Cl` [Example S6, (R)-3-(3-(2-chloro-4-(trifluoromethyl)phenyl)ureido)-4-(trimethylammonio)-butanoate] registered a concentration for half-maximal inhibition (IC50) under setting [1] of 100 to 1000 µM.
Same read-out and setting: for `CCCOc1ccc(C(=O)N[C@H](CC(=O)[O-])C[N+](C)(C)C)cc1` [Example S1, (R)-3-(4-propoxybenzamido)-4-(trimethylammonio)butanoate] the value was 100 to 1000 µM; for `CCCCCc1ccc(C#Cc2ccc(NS(=O)(=O)N[C@H](CC(=O)[O-])C[N+](C)(C)C)cc2)cc1` [Example S107, (R)-3-(N-(4-((4-pentylphenyl)ethynyl)phenyl)sulfamoylamino)-4-(trimethylammonio)butanoate], 1 to 10 µM.
Under setting [1], `C[N+](C)(C)C[C@@H](CC(=O)O)NC(=O)Nc1ccc(OCc2ccccc2)cc1` [Example S12, (R)-3-(3-(4-(Benzyloxy)phenyl)ureido)-4-(trimethylammonio)butanoate acetate] displayed a half-inhibitory concentration (IC50) of 100 to 1000 µM.
Molecule `C[N+](C)(C)C[C@@H](CC(=O)O)NC(=O)Nc1ccc(F)c(F)c1F` [Example S14, (R)-3-Carboxy-N,N,N-trimethyl-2-(3-(2,3,4-trifluorophenyl)ureido)-propan-1-aminium acetate] displayed a concentration for half-maximal inhibition (IC50) under setting [1] of 1000 to 2500 µM.
On to `Cc1cc(COc2ccccc2)oc1C(=O)N[C@H](CC(=O)[O-])C[N+](C)(C)C` [Example S65, (R)-3-(3-methyl-5-(phenoxymethyl)furan-2-carboxamido)-4-(trimethyl-ammonio)butanoate], for which the IC50 under setting [1] fell in the range of 100 to 1000 µM.
Under setting [1], `C[N+](C)(C)C[C@@H](CC(=O)O)NC(=O)c1ccc(CCc2ccccc2)o1` [Example S42, (R)-3-(5-phenethylfuran-2-carboxamido)-4-(trimethylammonio)-butanoate] returned an IC50 not above 1 µM.
Still for that read-out and setting: for `CCCCCc1ccc(NS(=O)(=O)N[C@H](CC(=O)O)C[N+](C)(C)C)cc1` [Example S91, (R)-3-(N-(4-pentylphenyl)sulfamoylamino)-4-(trimethylammonio)butanoate] the value was not above 1 µM; for `CCCCCc1ccc(C#Cc2ccc(C(=O)N[C@H](CC(=O)O)C[N+](C)(C)C)s2)cc1` [Example S96, (R)-3-carboxy-N,N,N-trimethyl-2-(5-((4-pentylphenyl)ethynyl)-thiophene-2-carboxamido)propan-1-aminium 2,2,2-trifluoroacetate], not above 1 µM.
Same read-out and setting: for `C[N+](C)(C)C[C@@H](CC(=O)[O-])NC(=O)Nc1ccc(-c2cccs2)cc1` [Example S11, (R)-3-(3-(4-(thiophen-2-yl)phenyl)ureido)-4-(trimethylammonio)butanoate] the value was 100 to 1000 µM; for `C[N+](C)(C)C[C@@H](CC(=O)[O-])NC(=O)c1ccc(CN2CCOCC2)o1` [Example S59, (R)-3-(5-(morpholinomethyl)furan-2-carboxamido)-4-(trimethylammonio)-butanoate], 1000 to 2500 µM.
Consider `CC(C)(C)c1ccc(OCc2ccc(C(=O)N[C@H](CC(=O)[O-])C[N+](C)(C)C)o2)cc1` [Example S60, (R)-3-(5-((4-tert-butylphenoxy)methyl)furan-2-carboxamido)-4-(trimethyl-ammonio)butanoate], for which the IC50 under setting [1] was 100 to 1000 µM.

For the origin of these results see patent US8410150B2, “Inhibitors of carnitine palmitoyltransferase and treating cancer” (University Health Network, priority 2007, dated 2013).
